The values that follow come from ChEMBL document CHEMBL1909046, “DrugMatrix in vitro pharmacology data”.

What is called IC50 is the concentration that gives 50% inhibition. As a reminder, the Ki is a measure of affinity in units of concentration, obtained from inhibition or displacement.

Data set [1] addresses Cytochrome P450 2D6 (Homo sapiens, UniProt P10635). The settings on record: bti-tn-5b1-4.
The target in data set [2] is Beta-1 adrenergic receptor (Homo sapiens, UniProt P08588). Description: DRUGMATRIX: Adrenergic beta1 radioligand binding (ligand: [125I] Cyanopindolol). It is filed as cell membranes, CHO-K1, Membrane. The settings on record: Not Active = under 50% inhibition at 10 µM.
Sequence of Beta-1 adrenergic receptor (P08588 whole entry): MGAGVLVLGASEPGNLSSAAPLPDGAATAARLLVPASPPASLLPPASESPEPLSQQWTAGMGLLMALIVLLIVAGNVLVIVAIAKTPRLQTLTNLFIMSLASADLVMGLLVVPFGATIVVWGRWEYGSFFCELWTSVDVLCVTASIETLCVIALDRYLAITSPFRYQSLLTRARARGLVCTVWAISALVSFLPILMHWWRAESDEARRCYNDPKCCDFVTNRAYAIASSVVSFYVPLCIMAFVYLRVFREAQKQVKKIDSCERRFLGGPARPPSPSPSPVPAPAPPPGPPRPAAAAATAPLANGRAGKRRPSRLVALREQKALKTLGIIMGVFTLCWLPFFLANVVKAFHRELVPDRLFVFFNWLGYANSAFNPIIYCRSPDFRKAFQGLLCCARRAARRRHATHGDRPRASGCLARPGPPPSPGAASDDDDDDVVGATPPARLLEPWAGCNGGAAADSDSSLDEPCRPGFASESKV
The target in data set [3] is Mitogen-activated protein kinase 1 (Homo sapiens, UniProt P28482). Description: DRUGMATRIX: Protein Serine/Threonine Kinase, ERK2 enzyme inhibition (substrate: Myelin Basic Protein). The arrangement: species or system Escherichia coli. The settings on record: Not Active = under 50% inhibition at 10 µM.
Sequence of Mitogen-activated protein kinase 1 (P28482 whole entry): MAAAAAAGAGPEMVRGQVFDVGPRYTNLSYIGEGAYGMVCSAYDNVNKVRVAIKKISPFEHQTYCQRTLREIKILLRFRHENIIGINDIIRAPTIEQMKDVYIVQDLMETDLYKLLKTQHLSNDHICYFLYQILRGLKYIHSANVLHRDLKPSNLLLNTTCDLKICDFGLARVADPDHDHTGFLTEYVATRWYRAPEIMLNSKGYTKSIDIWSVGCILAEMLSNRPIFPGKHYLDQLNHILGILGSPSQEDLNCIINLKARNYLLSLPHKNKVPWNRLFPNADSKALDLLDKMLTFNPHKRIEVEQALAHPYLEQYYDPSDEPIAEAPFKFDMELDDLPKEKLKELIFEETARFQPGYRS
Data set [4] concerns the target Glycine receptor (Rattus norvegicus, UniProt P22771+P24524+P07727+P20781). It is filed as cell membranes, Wistar, Spinal cord, Membrane. Also: in other assays of this panel Not Active means under 50% inhibition at 10 µM.
Data set [5] deals with Carbonic anhydrase 2 (Homo sapiens, UniProt P00918). Description: DRUGMATRIX: Carbonic Anhydrase II enzyme inhibition (substrate: 4-Nitrophenyl acetate (4-NPA)). It counts as tissue-based, Erythrocyte. The settings on record: erythrocyte; Not Active = under 50% inhibition at 10 µM.
The target of data set [6] is Adenosine receptor A2a (Homo sapiens, UniProt P29274). Description: DRUGMATRIX: Adenosine A2A radioligand binding (ligand: […]). It counts as cell membranes, Membrane. The note with it: hek293; Not Active = under 50% inhibition at 10 µM.
Sequence of Adenosine receptor A2a (P29274 whole entry): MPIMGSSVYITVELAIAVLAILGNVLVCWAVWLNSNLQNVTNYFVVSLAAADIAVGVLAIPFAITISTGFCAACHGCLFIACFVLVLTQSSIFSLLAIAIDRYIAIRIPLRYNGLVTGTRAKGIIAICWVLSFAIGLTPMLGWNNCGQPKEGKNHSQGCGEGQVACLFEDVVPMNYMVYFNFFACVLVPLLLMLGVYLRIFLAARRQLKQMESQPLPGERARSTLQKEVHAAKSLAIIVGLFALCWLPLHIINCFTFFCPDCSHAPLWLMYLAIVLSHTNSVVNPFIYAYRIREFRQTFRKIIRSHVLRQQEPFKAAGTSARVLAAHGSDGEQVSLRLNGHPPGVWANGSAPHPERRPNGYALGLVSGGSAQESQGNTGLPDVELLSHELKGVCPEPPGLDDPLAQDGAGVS
The target in data set [7] is Melanocortin receptor 3 (Homo sapiens, UniProt P41968). It counts as cell membranes, HEK293, Membrane. Also: in other assays of this panel Not Active means under 50% inhibition at 10 µM.
Sequence of Melanocortin receptor 3 (P41968 whole entry): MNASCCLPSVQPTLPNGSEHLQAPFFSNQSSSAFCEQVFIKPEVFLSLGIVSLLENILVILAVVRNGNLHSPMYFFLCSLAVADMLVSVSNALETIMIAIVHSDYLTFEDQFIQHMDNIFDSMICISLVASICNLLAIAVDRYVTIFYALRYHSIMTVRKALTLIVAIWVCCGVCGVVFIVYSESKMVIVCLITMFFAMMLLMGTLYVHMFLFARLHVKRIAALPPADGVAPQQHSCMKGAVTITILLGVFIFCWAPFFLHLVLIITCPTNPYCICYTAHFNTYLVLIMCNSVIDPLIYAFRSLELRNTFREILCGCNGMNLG

Sequence of Cytochrome P450 2D6 (P10635 whole entry): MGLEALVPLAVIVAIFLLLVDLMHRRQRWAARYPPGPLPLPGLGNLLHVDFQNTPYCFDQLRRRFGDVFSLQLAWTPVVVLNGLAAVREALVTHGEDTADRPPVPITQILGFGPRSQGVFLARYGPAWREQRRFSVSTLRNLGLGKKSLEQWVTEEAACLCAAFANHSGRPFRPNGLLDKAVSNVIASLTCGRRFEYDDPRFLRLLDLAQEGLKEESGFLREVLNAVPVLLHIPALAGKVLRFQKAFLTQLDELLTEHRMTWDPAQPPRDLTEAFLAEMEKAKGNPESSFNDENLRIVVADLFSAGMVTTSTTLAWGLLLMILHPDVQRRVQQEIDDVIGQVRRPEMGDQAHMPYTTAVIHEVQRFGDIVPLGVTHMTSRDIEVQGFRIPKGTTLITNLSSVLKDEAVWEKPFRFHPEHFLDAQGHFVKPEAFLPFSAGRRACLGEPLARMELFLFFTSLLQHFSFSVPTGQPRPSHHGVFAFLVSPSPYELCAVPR

Regarding `CC(C)(C)NC(=O)[C@@H]1C[C@@H]2CCCC[C@@H]2CN1C[C@@H](O)[C@H](Cc1ccccc1)NC(=O)[C@H](CC(N)=O)NC(=O)c1ccc2ccccc2n1`, the IC50 entry in data set [1], in data set [2] (cho-k1), in data set [3], in data set [4], in data set [5] and in data set [6] was “Not Active” in each case. Besides, the IC50 result in data set [7] (hek293) is “Not Active”. In addition, in data set [1], the Ki result is recorded as “Not Active”.

On to `CC1(C)O[C@@H]2C[C@H]3[C@@H]4CCC5=CC(=O)C=C[C@]5(C)[C@@]4(F)[C@@H](O)C[C@]3(C)[C@]2(C(=O)CO)O1` [TRIAMCINOLONE ACETONIDE], for which the IC50 result in data set [1], in data set [2] (cho-k1), in data set [3], in data set [4], in data set [5] and in data set [6] was “Not Active” in each case. Further, in data set [7] (hek293), the IC50 entry is on record as “Not Active”. The Ki result in data set [1] is reported as “Not Active”.

On to `Cc1cccc(N(C)C(=S)Oc2ccc3ccccc3c2)c1` [TOLNAFTATE], for which the IC50 result in data set [1], in data set [2] (cho-k1), in data set [3], in data set [4], in data set [5] and in data set [6] was “Not Active” throughout. Besides, in data set [7] (hek293), the IC50 entry is “Not Active”. In addition, in data set [1], the Ki entry was “Not Active”.

Regarding `C[C@@H]1CN(c2c(F)c(N)c3c(=O)c(C(=O)O)cn(C4CC4)c3c2F)C[C@H](C)N1` [SPARFLOXACIN], the IC50 result in data set [1], in data set [2] (cho-k1), in data set [3], in data set [4], in data set [5] and in data set [6] was “Not Active” throughout. In data set [7] (hek293), the IC50 result is listed as “Not Active”. Moreover, the Ki entry in data set [1] is listed as “Not Active”.

`Cn1ccnc1S` [METHIMAZOLE]: the IC50 result in data set [1], in data set [2] (cho-k1), in data set [3], in data set [4], in data set [5] and in data set [6] was “Not Active” in each case. In data set [7] (hek293), the IC50 result was “Not Active”. For the same compound, in data set [1], the Ki entry is “Not Active”.

As for `CN1CCN(CCCN2c3ccccc3Sc3ccc(Cl)cc32)CC1` [PROCHLORPERAZINE], the concentration for half-maximal inhibition (IC50) result in data set [2] (cho-k1), in data set [3], in data set [4], in data set [5], in data set [6] and in data set [7] (hek293) was “Not Active” in each case.

`C=CCC1(C(C)CCC)C(=O)NC(=O)NC1=O` (stereo unspecified) [SECOBARBITAL]: the IC50 result in data set [1], in data set [2] (cho-k1), in data set [3], in data set [4], in data set [5] and in data set [6] was “Not Active” throughout. Further, the IC50 entry in data set [7] (hek293) is reported as “Not Active”. For the same compound, the Ki result in data set [1] was “Not Active”.

Regarding `N[C@@H](Cc1ccc(N(CCCl)CCCl)cc1)C(=O)O`, the IC50 entry in data set [1], in data set [2] (cho-k1), in data set [3], in data set [4], in data set [5] and in data set [6] was “Not Active” each time. Also, in data set [7] (hek293), the concentration for half-maximal inhibition (IC50) result is “Not Active”. Besides, in data set [1], the Ki entry is recorded as “Not Active”.

Take `Nc1nc2ccc(OC(F)(F)F)cc2s1` [RILUZOLE]: the IC50 entry in data set [2] (cho-k1), in data set [3], in data set [4], in data set [5], in data set [6] and in data set [7] (hek293) was “Not Active” throughout.

On to `N[C@@H]1[C@H]2CN(c3nc4c(cc3F)c(=O)c(C(=O)O)cn4-c3ccc(F)cc3F)C[C@@H]12` [TROVAFLOXACIN], for which the IC50 entry in data set [1], in data set [2] (cho-k1), in data set [3], in data set [4], in data set [5] and in data set [6] was “Not Active” throughout. Besides, in data set [7] (hek293), the IC50 result is on record as “Not Active”. For the same compound, in data set [1], the Ki entry was “Not Active”.

With `COc1c(C)c2c(c(O)c1C/C=C(\C)CCC(=O)O)C(=O)OC2` [MYCOPHENOLIC ACID], the IC50 result in data set [1], in data set [2] (cho-k1), in data set [3], in data set [4], in data set [5] and in data set [6] was “Not Active” throughout. Moreover, the IC50 entry in data set [7] (hek293) is “Not Active”. In addition, the Ki entry in data set [1] is recorded as “Not Active”.

With `CCCOc1ccccc1-c1nc2nn[nH]c2c(=O)[nH]1` [ZAPRINAST], the IC50 result in data set [1], in data set [2] (cho-k1), in data set [3], in data set [4], in data set [5] and in data set [6] was “Not Active” each time. In data set [7] (hek293), the IC50 result was “Not Active”. In addition, the Ki entry in data set [1] is “Not Active”.

For `Nc1nc2nc[nH]c2c(=S)[nH]1` [THIOGUANINE], the IC50 result in data set [1], in data set [2] (cho-k1), in data set [3], in data set [4], in data set [5] and in data set [6] was “Not Active” in each case. In data set [7] (hek293), the IC50 entry is given as “Not Active”. Besides, in data set [1], the inhibition constant (Ki) entry was “Not Active”.

Consider `Cc1nc2n(c(=O)c1CCN1CCC(c3noc4cc(F)ccc34)CC1)CCCC2` [RISPERIDONE], for which the IC50 result in data set [2] (cho-k1), in data set [3], in data set [4], in data set [5], in data set [6] and in data set [7] (hek293) was “Not Active” each time.

`CCCCc1oc2ccccc2c1C(=O)c1cc(I)c(OCCN(CC)CC)c(I)c1` [AMIODARONE]: the IC50 entry in data set [3], in data set [4], in data set [5] and in data set [6] was “Not Active” in each case.

On to `Nc1c2c(nc3ccccc13)CCCC2` [TACRINE], for which the IC50 result in data set [2] (cho-k1), in data set [3], in data set [4], in data set [5], in data set [6] and in data set [7] (hek293) was “Not Active” throughout.

In the case of `CCOC(=O)N1CCC(=C2c3ccc(Cl)cc3CCc3cccnc32)CC1` [LORATADINE], the IC50 result in data set [2] (cho-k1), in data set [3], in data set [4], in data set [5], in data set [6] and in data set [7] (hek293) was “Not Active” each time.

For `CC(C)N1CCN(c2ccc(OCC3COC(Cn4cncn4)(c4ccc(Cl)cc4Cl)O3)cc2)CC1` (stereo unspecified) [TERCONAZOLE], the IC50 result in data set [1], in data set [3], in data set [4], in data set [5], in data set [6] and in data set [7] (hek293) was “Not Active” in each case. Besides, the Ki entry in data set [1] is reported as “Not Active”.

In the case of `CC[C@@H](CO)NC(=O)[C@@H]1C=C2c3cccc4[nH]cc(c34)C[C@H]2N(C)C1` [METHYLERGONOVINE], the IC50 entry in data set [3], in data set [4], in data set [5], in data set [6] and in data set [7] (hek293) was “Not Active” in each case.

As for `CC/C(=C(\c1ccccc1)c1ccc(OCCN(C)C)cc1)c1ccccc1` [TAMOXIFEN], the IC50 is 17.3 µM in data set [2] (read-out: IC50); “Not Active” in data set [3]; “Not Active” in data set [4]; “Not Active” in data set [5]; 19.9 µM in data set [7] (read-out: IC50). Further, the values for the Ki in data set [2] (read-out: Ki) and in data set [7] (read-out: Ki) were 9.98 µM and 17.3 µM, respectively.
